In patent US8124641B2, “Aminotetrahydroindazoloacetic acids” (Hoffmann-La Roche Inc., priority 2008, dated 2012):

Target: T1, human CRTH2 (Homo sapiens, UniProt Q9Y5Y4)
T1 construct: expressed in transfected cells
T1 sequence (Q9Y5Y4 1-395): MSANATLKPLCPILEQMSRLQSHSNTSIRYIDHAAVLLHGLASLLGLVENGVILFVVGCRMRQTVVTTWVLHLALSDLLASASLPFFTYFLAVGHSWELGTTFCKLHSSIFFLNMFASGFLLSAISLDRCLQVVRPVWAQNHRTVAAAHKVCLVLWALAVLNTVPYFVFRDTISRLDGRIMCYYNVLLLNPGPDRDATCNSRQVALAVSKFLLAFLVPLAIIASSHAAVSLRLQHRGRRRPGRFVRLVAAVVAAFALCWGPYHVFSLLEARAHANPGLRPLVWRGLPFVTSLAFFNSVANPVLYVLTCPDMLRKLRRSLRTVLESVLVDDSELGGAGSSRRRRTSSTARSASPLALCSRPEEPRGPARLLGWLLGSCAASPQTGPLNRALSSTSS
Assay: Human CRTH2 Receptor Binding Assay (whole cell, [3H]ramatroban competition)
Conditions: CHO-K1 cells stably expressing human CRTH2 and G-alpha16; 20 nM [3H]ramatroban; 1 hour, room temperature
Description: A whole cell receptor binding assay using [^3H]ramatroban as the competing radioactive ligand was employed to evaluate the compound binding activity to human CRTH2. The radioactive ligand [^3H]ramatroban was synthesized according to Sugimoto et. al. (Eur. J. Pharmacol. 524, 30-37, 2005) to a specific activity of 42 Ci/mmol.
A cell line stably expressing human CRTH2 was established by transfecting CHO-K1 cells with two mammalian expression vectors that harbored human CRTH2 and G-alpha16 cDNAs, respectively, using FuGene® 6 transfection reagent (from Roche). Stable clones expressing CRTH2 were selected by staining each clone with BM16 (BD Pharmingen™ from BD Biosciences, a division of Becton, Dickinson and Company), which is a rat monoclonal antibody to human CRTH2. The cells were maintained as monolayer cultures in Ham's F-12 medium containing 10% fetal bovine serum, 100 units/mL penicillin, 100 μg/mL streptomycin, 2 mM glutamine, 0.5 mg/mL G418 (geneticin) for CRTH2, and 0.2 mg/mL hygromycin-B (for G-alpha 16). For whole cell receptor binding assay, the monolayer cells were rinsed once with PBS (phosphate buffered saline), dissociated using ethylenediaminetetraacetate (Versene™ EDTA from Lonza Inc.), and suspended in PBS containing 10 mM MgCl2 and 0.06% BSA (bovine serum albumin) at 1.5×10^6 cells/mL.
The binding reactions (0.2 mL) were performed in 96-well plates at room temperature in PBS containing 1.5×10^5 cells, 10 mM MgCl2, 0.06% BSA, 20 nM [^3H]ramatroban, and test compound at various concentrations. After 1 hour of binding reactions, the cells were harvested on GF™/B filter microplates (microtiter plates with embedded glass fiber from PerkinElmer, Inc.) and washed 5 times with PBS using a Filtermate™ Harvester (a cell harvester that harvests and washes cells from microplates from PerkinElmer, Inc.). The radioactivities bound to the cells were determined using a microplate scintillation counter (TopCount® NXT, from PerkinElmer, Inc.) after adding 50 μL of Microscint™ 20 scintillation fluid (from PerkinElmer, Inc.) to each well of the filter plates. The radioactivity from non-specific binding was determined by replacing compound with 10 μM of 15(R)-15-methyl PGD2 (from Cayman Chemical Company) in the reaction mixtures. The radioactivity bound to the cells in the absence of compound (total binding) was determined by replacing compound with 0.25% of DMSO (dimethyl sulfoxide) in the reaction mixture. Specific binding data were obtained by subtracting the radioactivity of non-specific binding from each binding data.
The IC50 value is defined as the concentration of the tested compound that is required for 50% inhibition of total specific binding. In order to calculate the IC50 value, the percent inhibition data were determined for 7 concentrations for each compound. The percent inhibition for a compound at each concentration was calculated according to the following formula, [1−(specific binding in the presence of compound)/(total specific binding)]×100. The IC50 value was then obtained by fitting the percent inhibition data to a sigmoidal dose-response (4 parameter logistic) model in the XLfit® software Excel add-in program [from ID Business Solutions Ltd., model 205, where F(x)=(A+(B−A)/(1+((C/x)^D)))].

`Cc1ccc(S(=O)(=O)NC2CCCc3c2cnn3CC(=O)O)cc1[N+](=O)[O-]` (stereo not shown) [Example 1-5a, [4-(4-Methyl-3-nitro-benzenesulfonylamino)-4,5,6,7-tetrahydro-indazol-1-yl]-acetic acid] gave an IC50 of 225 nM.

Molecule `CS(=O)(=O)Nc1cccc(S(=O)(=O)NC2CCCc3c2cnn3CC(=O)O)c1` (stereo not shown) [Example 23-1a, [4-(3-Methanesulfonylamino-benzenesulfonylamino)-4,5,6,7-tetrahydro-indazol-1-yl]-acetic acid] has an IC50 of 39.5 nM.

For `Cc1ccc(S(=O)(=O)NC2CCCc3c2cnn3CC(=O)O)cc1Cl` (stereo not shown) [Example 1-17a, [4-(3-Chloro-4-methyl-benzenesulfonylamino)-4,5,6,7-tetrahydro-indazol-1-yl]-acetic acid], the IC50 was 381 nM.

Work on `O=C(O)Cn1ncc2c1CCC[C@H]2NS(=O)(=O)c1cc(C(F)(F)F)cc(C(F)(F)F)c1` [Example 1-4a, [(R)-4-(3,5-Bis-trifluoromethyl-benzenesulfonylamino)-4,5,6,7-tetrahydro-indazol-1-yl]-acetic acid] yielded an IC50 of 16.4 nM.

`CCS(=O)(=O)c1cc(C(F)(F)F)cc(S(=O)(=O)N(C)[C@@H]2CCCc3c2cnn3CC(=O)O)c1` [Example 10-1a, {(R)-4-[(3-Ethanesulfonyl-5-trifluoromethyl-benzenesulfonyl)-methyl-amino]-4,5,6,7-tetrahydro-indazol-1-yl}-acetic acid] gave an IC50 of 2.5 nM.

For `CCN(CC)c1cc(C(F)(F)F)cc(S(=O)(=O)N(C)[C@@H]2CCCc3c2cnn3CC(=O)O)c1` [Example 24-4a, {(R)-4-[(3-Diethylamino-5-trifluoromethyl-benzenesulfonyl)-methyl-amino]-4,5,6,7-tetrahydro-indazol-1-yl}-acetic acid], the IC50 was 146 nM.

`CS(=O)(=O)c1cc(C(F)(F)F)cc(S(=O)(=O)N[C@@H]2CCCc3c2cnn3CC(=O)O)c1` [Example 5-1a, [(R)-4-(3-Methanesulfonyl-5-trifluoromethyl-benzenesulfonylamino)-4,5,6,7-tetra-hydro-indazol-1-yl]-acetic acid] showed an IC50 of 3.1 nM.

Molecule `CC(C)c1cc(C(F)(F)F)cc(S(=O)(=O)N(C)[C@@H]2CCCc3c2cnn3CC(=O)O)c1` [Example 13-1a, {(R)-4-[(3-isopropyl-5-trifluoromethyl-benzenesulfonyl)-methyl-amino]-4,5,6,7-tetrahydro-indazol-1-yl}-acetic acid] has an IC50 of 7.3 nM.

In the case of `CN([C@@H]1CCCc2c1cnn2CC(=O)O)S(=O)(=O)c1ccc(Br)cc1Cl` [Example 2-2a, {(R)-4-[(4-Bromo-2-chloro-benzenesulfonyl)-methyl-amino]-4,5,6,7-tetrahydro-indazol-1-yl}-acetic acid], the IC50 is reported as 97.8 nM.

`CN([C@@H]1CCCc2c1cnn2CC(=O)O)S(=O)(=O)c1cc(C2CC2)cc(C(F)(F)F)c1` [Example 26-1a, {(R)-4-[(3-Cyclopropyl-5-trifluoromethyl-benzenesulfonyl)-methyl-amino]-4,5,6,7-tetrahydro-indazol-1-yl}-acetic acid] showed an IC50 of 16.3 nM.

Molecule `CC(C)S(=O)(=O)c1cc(C(F)(F)F)cc(S(=O)(=O)N(C)[C@@H]2CCCc3c2cnn3CCC(=O)O)c1` [Example 10-5a, 3-((R)-4-{Methyl-[3-(propane-2-sulfonyl)-5-trifluoromethyl-benzenesulfonyl]-amino}-4,5,6,7-tetrahydro-indazol-1-yl)-propionic acid] has an IC50 of 2.4 nM.

For `CN([C@@H]1CCCc2c1cnn2CC(=O)O)S(=O)(=O)c1cc(C(F)(F)F)cc(C2(C)CC2)c1` [Example 14-1a, ((R)-4-{Methyl-[3-(1-methyl-cyclopropyl)-5-trifluoromethyl-benzenesulfonyl]-amino}-4,5,6,7-tetrahydro-indazol-1-yl)-acetic acid], the IC50 was 6.2 nM.

With `CC(=O)Nc1cccc(S(=O)(=O)NC2CCCc3c2cnn3CC(=O)O)c1` (stereo not shown) [Example 22-1a, [4-(3-Acetylamino-benzenesulfonylamino)-4,5,6,7-tetrahydro-indazol-1-yl]-acetic acid] the IC50 was 80.1 nM.

`CN([C@@H]1CCCc2c1cnn2CC(=O)O)S(=O)(=O)c1cc(Br)cc(C(F)(F)F)c1` [Example 2-5a, {(R)-4-[(3-Bromo-5-trifluoromethyl-benzenesulfonyl)-methyl-amino]-4,5,6,7-tetrahydro-indazol-1-yl}-acetic acid] showed an IC50 of 11.2 nM.

With `C#Cc1cc(C(F)(F)F)cc(S(=O)(=O)NC2CCCc3c2cnn3CC(=O)O)c1` (stereo not shown) [Example 16-1a, [4-(3-Ethynyl-5-trifluoromethyl-benzenesulfonylamino)-4,5,6,7-tetrahydro-indazol-1-yl]-acetic acid] the IC50 was 69.8 nM.

With `CCC1(c2cc(C(F)(F)F)cc(S(=O)(=O)N(C)[C@@H]3CCCc4c3cnn4CC(=O)O)c2)CC1` [Example 15-1a, ((R)-4-{[3-(1-Ethyl-cyclopropyl)-5-trifluoromethyl-benzenesulfonyl]-methyl-amino}-4,5,6,7-tetrahydro-indazol-1-yl)-acetic acid] the IC50 was 12.3 nM.

`CCOc1ncc(S(=O)(=O)NC2CCCc3c2cnn3CC(=O)O)cc1Br` (stereo not shown) [Example 3-2a, [4-(5-Bromo-6-ethoxy-pyridine-3-sulfonylamino)-4,5,6,7-tetrahydro-indazol-1-yl]-acetic acid] showed an IC50 of 370 nM.

`CN([C@@H]1CCCc2c1cnn2CCC(=O)O)S(=O)(=O)c1cc(C(F)(F)F)cc(S(=O)(=O)C2CCCC2)c1` [Example 10-6a, 3-{(R)-4-[(3-Cyclopentanesulfonyl-5-trifluoromethyl-benzenesulfonyl)-methyl-amino]-4,5,6,7-tetrahydro-indazol-1-yl}-propionic acid] was tested, and the IC50 was 3.3 nM.

Work on `O=C(O)Cn1ncc2c1CCCC2NS(=O)(=O)c1cnc(Cl)c(Br)c1` (stereo not shown) [Example 1-11a, [4-(5-Bromo-6-chloro-pyridine-3-sulfonylamino)-4,5,6,7-tetrahydro-indazol-1-yl]-acetic acid] yielded an IC50 of 291 nM.
